Measured values: US20180141911A1, “Quinoline Derivatives for Diagnosis and Treatment of Alzheimer's Disease” (Northeastern University, priority 2015, published 2018)
One block for each compound: values may come before it.

How the values were obtained:
[1] = test system: tau and Aβ aggregates; settings: post-mortem AD brain tissues; cited from earlier work
[2] = normal subjects, nonhuman primates; cited from earlier work

SMILES: Oc1cccc2cccnc12 [8-Hydroxyquinoline]
- binding to tau and Aβ aggregates [1]: bind to both tau and Aβ aggregates

- melting point: 120 °C
SMILES: Brc1cnc2c(OCc3ccccc3)cccc2c1

SMILES: Oc1c(I)cc(Cl)c2cccnc12 [clioquinol]
- binding to tau and Aβ aggregates [1]: bind to both tau and Aβ aggregates

SMILES: Oc1cccc2ccc([18F])nc12 [[^18F]-CABS13, [^18F]-2-fluoro-8-hydroxyquinoline]
- brain penetration [2]: poor brain penetration
- conversion to a polar metabolite [2]: rapid, high conversion to a polar metabolite
